Data set [1] deals with SiHa cells. Put plainly: Cell cycle distribution by flow cytometry (PI). The class given is cell-based, human. The settings on record: 4 μM. On the procedure: (§1) Differential Activation of G1 Phase Arrest and Apoptosis by Manzamine A (1). To understand the mechanism of manzamine A (1)-mediated cell growth inhibition, we analyzed the cell cycle distribution by flow cytometry in C33A, HeLa, SiHa, and CaSki cell lines. […] FIGS. 3A and 3B show a representation of manzamine A (1) effect on cervical cancer cells treated with 4 μM concentration. […] The values represent standard error from the mean (mean±SE). DMSO serves as control. The significance level represents; *p<0.05; **p<0.001; ***[…]; and ns=non-significant. […] Particularly at 4 μM concentration, the percentage of G0/G1 cell population in SiHa and CaSki increased to 1.2 fold (p=0.001) and 1.4 fold (p=0.011) at 24 hours, and 1.2 fold (p=0.03) and 1.5 fold (p=0.006) at 48 hours as compared to respective DMSO control.
(§2) Cell-cycle and Apoptosis Analysis. Cervical cancer cells were seeded and treated with different concentrations of manzamine A (1) as above. Following trypsinization, one part of the cells was washed with PBS and fixed in chilled 70% ethanol on ice for 30 min. Cells were treated with RNAse A (1 mg/ml) at room temperature for 30 min and stained with propidium iodide (PI: 20 μg/ml). Cell-cycle distribution was analyzed by flow cytometry (Beckman Coulter Epics Elite, Beckman). A minimum of 10,000 events were counted per sample, and the data were analyzed using CXP software (Beckman Coulter) for the proportions of cells in G0/G1, S and G2/M phases of the cell cycle. The second part of the cells were washed twice with PBS and re-suspended in the buffer containing Alexa Fluor conjugated-Annexin-V and PI (Life Technologies, USA). The double staining of the cells was analyzed by flow cytometric analysis. A total of 10,000 cell events were collected to analyze the extent of early, late apoptosis, or necrosis from each sample with the percentages of bound annexin-V^+/PI^−, annexin V^+/PI^+, and annexin V^−/PI^+, respectively.
(Flow cytometry measures light scatter and fluorescence of single cells or particles in a stream.)

For the next data set, the system named is C33A cells. Put plainly: Cell cycle distribution by flow cytometry (PI). Type of data set: cell-based, human. As to conditions: 4 μM, 48 and 72 hours. On the procedure: as §1, §2
The subject of a further data set is CaSki cells. Briefly: Cell cycle distribution by flow cytometry (PI). Type of data set: cell-based, human. The settings on record: 4 μM. On the procedure:
as §1, §2

The test system of a further data set is HeLa cells. Put plainly: Cell cycle distribution by flow cytometry (PI). The class given is cell-based, human. As to conditions: 4 μM, 48 and 72 hours, vs DMSO control. On the procedure: as §1, §2
Data set [2] deals with C33A, HeLa, SiHa and CaSki cell lines. Briefly: Cell growth kinetics. Type of data set: cell-based, human. On the procedure:
(§3) To maintain the treatment uniformity across the cell lines, we selected optimal dose concentration of 1 to 4 μM, and treated C33A, HeLa, SiHa and CaSki cell lines.
Cell Growth Kinetics. Cervical cancer cells (1×10^6) or HKc (2×10^5) were plated in 100 mm tissue culture petri dish or 6-well plates. Following overnight incubation, cells were treated with 2 μM or 4 μM concentrations of manzamine A (1) derivatives for different time points (24, 48 and 72 hours). Dimethyl sulphoxide (DMSO) was used as control. The cell proliferation activity was determined by cell counting under the microscope with a hemocytometer using trypan blue staining.

Data set [3] concerns normal human keratinocytes (HKc). Put plainly: Cell growth kinetics of normal keratinocytes. Type of data set: cell-based. As to conditions: 4 μM stated for compound 4; 48 h and 72 h; vs DMSO control. As for the experimental part:
Based on MoIN, the additional manzamine-related compounds such as manzamine D (2), manzamine F (3), 8-hydroxymanzamine A (4), and ircinal A (5) were tested for their biological activities targeting cervical cancer cell lines (SiHa and CaSki).
Generation of Normal Human Keratinocytes (HKc). The generation and processing of normal HKc from de-identified foreskin tissue samples has previously been described in our studies, see Pirisi, L.; Yasumoto, S.; Feller, M.; Doniger, J.; DiPaolo, J. A. J. Virol. 1987, 61, 1061-1066, and was implemented with the following modifications: dispase was used in lieu of collagenase, and a trypsinization step was added to release the epidermal cells. Briefly, to generate normal HKc primary cultures, the foreskin tissue, free of subcutaneous tissue, was placed in 10% dispase in phosphate buffer saline (PBS) and incubated overnight at 37° C. The next day, the epidermis was separated from the dermis, and processed mechanically by shredding the tissue into smaller pieces that were then treated with Trypsin/EDTA for 10 minutes at 37° C. Following the addition of fetal bovine serum (10%) to stop the trypsin action, cells were collected by centrifugation and plated in keratinocytes serum free medium (KSFM).
Cell Growth Kinetics. […] The cell proliferation activity was determined by cell counting under the microscope with a hemocytometer using trypan blue staining.

The subject of data set [4] is SiHa cells. Briefly: Apoptosis analysis (annexin V and PI staining). The class given is cell-based, human. The settings on record: 4 μM, 48 hours. On the procedure:
Since programmed cell death (apoptosis) is a key mechanism by which anti-cancer drugs kill cancer cells, we determined the apoptotic effect of manzamine A on cervical cancer cells using annexin V and PI staining. […] Given the sensitivity of C33A and HeLa cell lines to manzamine A, an increase in apoptosis was expected. […] CaSki cells were the least sensitive and corresponds to the IC50 values as in FIG. 2.
as §2

Data set [5] can be described thus: Weight loss at high doses. The class given is in vivo. An excerpt:
The manzamine class of marine alkaloids is attractive in its potential for the development of novel therapeutics. This group has among the most extensively studied marine natural products to date, being found in more than 16 species of Indo-Pacific sponges distributed within distinct geographical regions. […] These molecules also show interesting activity as neuroprotective and anti-inflammatory agents, HIV/AIDS-associated opportunistic infections, and inhibition of cancer proliferative and metastatic activity. See Ridley, R. G.; Matile, H.; Jaquet, C.; Dorn, A.; Hofheinz, W.; Leupin, W.; Masciadri, R.; Theil, F. P.; Richter, W. F.; Girometta, M. A.; Guenzi, A.; Urwyler, H.; Gocke, E.; Potthast, J. M.; Csato, M.; Thomas, A.; Peters, W. Antimicrob. Agents Chemother. 1997, 41, 677-686. […] It is anticipated that short-term weight-loss would be less problematic or would not necessarily offset the therapeutic gain in cancer patients.

Data set [6] deals with cervical cancer cell lines. Briefly: Colony formation assay. The settings on record: 2 and 4 μM; one week. Type of data set: cell-based, human. As for the experimental part: as §3
Colony Formation Assay. Cancer cell lines were seeded at a density of 1×10^3 cells/ml in 6-well plates. Following overnight incubation, the cells were treated with manzamine A (1) (2 μM and 4 μM) and incubated in a tissue culture incubator at 37° C. with 5% CO2. After one week, the developed cell colonies were fixed with 4% paraformaldehyde, stained with 0.5% crystal violet, and were photographed.

The values below come from patent publication US12023330B2, “Use of manzamines as antiproliferative agent” (priority 2020, dated 2024).

Molecules are shown by their SMILES.

As to `O[C@]12C=C(c3nccc4c3[nH]c3ccccc34)[C@@H]3CCN(CCCC/C=C\CC1)C[C@@]31C[C@@H]3/C=C\CCCCN3[C@H]12` [manzamine A], the “increase of percentage of G0/G1 cell population vs DMSO control” value in the data set with SiHa cells [1] (24 hours) is listed as 1.2 fold; with SiHa cells [1] (48 hours) it was 1.2 fold; with CaSki cells (24 hours), 1.4 fold; in the data set on CaSki cells (48 hours), 1.5 fold. Further, the G2/M cell population entry in the data set on C33A cells is given as “significant decrease”. For the same compound, the “cell population in G0/G1” value with C33A cells (vs DMSO control) and in the data set on HeLa cells was “significant decrease” in each case. In addition, the “cervical cancer cell proliferation” value in data set [2] (1 to 4 μM, time- and dose-dependent, vs DMSO control) is “significantly inhibited”. For the same compound, in data set [2] (cervical cancer cells), the “anti-proliferative, non-cytotoxic concentrations” value is given as “up to 4 μM”. Besides, the “cell growth kinetics of normal HKc” value in [3] is “no adverse effect”. In addition, in the data set with SiHa cells [4], the “percentage of induced apoptotic cells (apoptosis+ necrosis)” value is listed as 33.6%. The body weight result in data set [5] is reported as “weight loss”. Also, in [6], the “colony formation (long-term cell growth)” value was “inhibited the cell growth”.
